Earlier results, collected in patent publication US20100273275A1, “Methods of determining levels of steroid fractions utilizing SHBG calculations” (priority 2005, published 2010).

Tests used:
[1] = biological target: albumin (Homo sapiens, UniProt P02768); conditions: for KAS (association constant for albumin-binding to a steroid ligand): constants used for calculations, Dunn et al. (1981), Moll et al. (1981), Rosner (1991)
[2] = biological target: T1, SHBG (Homo sapiens, UniProt P04278); conditions: for KPS (association constant for SHBG-binding to a steroid ligand): constants used for calculations, Dunn et al. (1981), Moll et al. (1981), Rosner (1991)
T1 sequence (P04278 30-402): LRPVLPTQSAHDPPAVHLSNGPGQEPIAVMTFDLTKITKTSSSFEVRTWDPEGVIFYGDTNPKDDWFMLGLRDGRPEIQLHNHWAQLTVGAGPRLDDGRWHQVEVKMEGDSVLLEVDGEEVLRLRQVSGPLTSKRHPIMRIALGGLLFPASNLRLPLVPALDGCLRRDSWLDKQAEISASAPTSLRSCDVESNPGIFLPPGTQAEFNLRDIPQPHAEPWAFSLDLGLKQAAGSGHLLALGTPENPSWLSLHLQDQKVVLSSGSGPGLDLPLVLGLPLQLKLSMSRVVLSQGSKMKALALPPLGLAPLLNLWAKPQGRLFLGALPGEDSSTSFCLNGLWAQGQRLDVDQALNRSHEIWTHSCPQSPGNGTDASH

[3] = constant used for free and bioavailable testosterone calculation

Chain of albumin (P02768 25-609): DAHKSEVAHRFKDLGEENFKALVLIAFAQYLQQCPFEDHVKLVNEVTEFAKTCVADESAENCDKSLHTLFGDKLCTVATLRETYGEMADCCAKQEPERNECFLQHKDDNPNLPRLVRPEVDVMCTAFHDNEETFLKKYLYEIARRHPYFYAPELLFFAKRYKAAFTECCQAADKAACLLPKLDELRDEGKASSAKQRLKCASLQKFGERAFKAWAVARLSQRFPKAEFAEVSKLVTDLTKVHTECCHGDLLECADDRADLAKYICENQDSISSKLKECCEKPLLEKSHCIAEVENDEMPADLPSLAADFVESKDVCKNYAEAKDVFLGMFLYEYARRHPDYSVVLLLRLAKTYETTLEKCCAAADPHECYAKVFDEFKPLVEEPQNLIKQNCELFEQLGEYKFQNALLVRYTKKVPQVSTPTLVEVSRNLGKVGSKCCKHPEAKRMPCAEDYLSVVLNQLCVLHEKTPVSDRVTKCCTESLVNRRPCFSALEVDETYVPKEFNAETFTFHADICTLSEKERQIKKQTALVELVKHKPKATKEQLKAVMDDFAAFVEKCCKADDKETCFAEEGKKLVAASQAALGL

Structure (SMILES)	KAS (association constant for albumin-binding to a steroid ligand) [1]	KPS (association constant for SHBG-binding to a steroid ligand) [2]	KA (association constant, albumin) [1, 3]	KS (association constant, SHBG) [2, 3]
C[C@]12CCC(=O)C=C1CC[C@@H]1[C@@H]2CC[C@]2(C)C(=O)CC[C@@H]12 [Androstenedione]	20000 [M^−1]	0.029 [M^−1] × 10^9	–	–
C[C@]12CC[C@H](O)CC1=CC[C@@H]1[C@@H]2CC[C@]2(C)C(=O)CC[C@@H]12 [Dehydroepiandrosterone]	40000 [M^−1]	–	–	–
C[C@]12CC[C@H](O)CC1=CC[C@@H]1[C@@H]2CC[C@]2(C)C(=O)CC[C@@H]12 [Dihydroandrosterone]	180000 [M^−1]	–	–	–
C[C@]12CCC(=O)C[C@@H]1CC[C@@H]1[C@@H]2CC[C@]2(C)[C@@H](O)CC[C@@H]12 [Dihydrotestosterone]	79800 [M^−1]	2.0 [M^−1] × 10^9	–	–
C[C@]12CC[C@H]3[C@@H](CCC4=CC(=O)CC[C@@]43C)[C@@H]1CC[C@@H]2O [Testosterone]	36000 [M^−1]	–	36000 L/mol	1e+09 L/mol
